The values below come from patent US20220000798A1, “TRANS-RESVERATROL TOPICAL MEDICATION FOR THE TREATMENT OF PAIN AND METHOD OF MANUFACTURE THEREOF” (Ted's Brain Science, Inc., priority 2017, published 2022).

The subject of data set [1] is AMPK. The data set is described as follows: AMPK activation by resveratrol isomers. The format is biochemical. Particulars: isomer of resveratrol. The text has this:
It is thus realized herein that including cis-resveratrol in a topical medication would be particularly disadvantageous, because it would contribute to the grainy or greasy feeling of the medication without contributing to its AMPK-activating efficacy.

Data set [2] has as its system pain. The note with it: animal model (rodents); administration by injection; cited from earlier work.
Data set [3] is described as follows: storage stability of trans-resveratrol powder. The format is physicochemical. The note with it: well-sealed containers kept away from light. As for the experimental part: In one embodiment, trans-resveratrol is prepared in the form of off-white to cream-colored powder with >99% purity as determined by high-performance liquid chromatography (HPLC) methodology. The resulting powder has a melting point of 260-264° C.

Turning to `Oc1ccc(/C=C\c2cc(O)cc(O)c2)cc1` [Cis-resveratrol], the AMPK activation entry in data set [1] is on record as “appears not to activate AMPK to any meaningful degree or extent”.

For `Oc1ccc(C=Cc2cc(O)cc(O)c2)cc1` [resveratrol], in data set [2], the “efficacy in mitigation of pain” value is reported as “has shown efficacy in mitigation of pain”.

`Oc1ccc(/C=C/c2cc(O)cc(O)c2)cc1` [trans-resveratrol, 3,4′,5-trihydroxystilbene]: in data set [1], the AMPK activation entry is reported as “activates AMPK”. In addition, in data set [3], the stability over time result was “over two years”.
